From patent US20240024320A1, “METHODS OF TREATING CANCER WITH A COMBINATION OF TUCATINIB AND AN ANTI-PD-1/ANTI-PD-L1 ANTIBODY” (Seagen Inc., priority 2020, published 2024)
Entries after “also recorded” stand apart in the source; their conditions may differ.

Assays:
[1] = tested on: Fo5 tumors; experiment: ex vivo FACS analysis of trastuzumab resistant Fo5 tumors; type: in vivo, FVB mice
Description: Tumors were harvested after 10-14 days of tucatinib 50 mg/kg treatment for Fo5 tumors and analyzed by FACS.
In vivo mouse studies. Female MMTV/Balb/c and FVB mice between 6 to 8 weeks of age were utilized for experiments. Treatment groups consisted of n=5 to 8 mice per group. […] Randomization and treatment commenced at approximately day 10 post-inoculation for the H2N113 tumor model with tumor sizes varying between 40 to 80 mm^3 and approximately day 14 for the Fo5 tumor model with tumor sizes varying between 60 to 120 mm^3. Tumor volumes were calculated using the equation […], where length and width refer to the larger and smaller dimensions collected at each measurement. […] Immunotherapy and isotype controls in both models were delivered on days 0, 4, 8, and 12. Tumor volumes were measured twice weekly with calipers. Survival was monitored and determined when the tumors reached an ethical limit of 1500 mm^3.
Flow cytometry analysis. For ex vivo studies, tumors were dissected, mechanically morcellated and passed through 70 μm filters. Cells were then resuspended in 30 μg/mL DNAse (Sigma-Aldrich) followed by Fc block (clone 2.4g2). Single cell suspensions were then stained with antibody cocktails for various TIL subsets. In some experiments, isolated cells were stimulated with phorbol 12-myristate 13-acetate (PMA; 50 ng/mL) and ionomycin (1 μg/mL; Sigma-Aldrich) in the presence of GolgiPlug (BD Biosciences; 1:1000) and GolgiStop (BD Biosciences; 1:1500) for 3 to 4 hours prior to flow cytometry analysis. Samples were analyzed by FACS with either Fixable Yellow or Zombie Red to discriminate viable and dead cells. BD fluorosphere counting beads were added to cocktails before running sample.

[2] = tested on: H2N113 tumors; type: in vivo
[3] = tested on: Fo5 tumors; experiment: ex vivo RNA sequencing / gene expression analysis of Fo5 tumors; type: in vivo, FVB mice
Description: The harvested tumors were then processed for stranded polyA RNA sequencing. […] Columns represent individual tumor samples and rows are individual genes.
Genomic analysis of mouse samples. RNA was extracted from Fo5 tumors treated in vivo with tucatinib at 50 mg/kg or vehicle (methyl cellulose, 0.5%) for 10 days using TRIzol® Reagent with the PureLink® RNA Mini Kit (Invitrogen™, Thermo Fisher Scientific, Waltham, MA, USA). Quantity and integrity of the total RNA was checked using a TapeStation 2200 (Agilent Technologies) and 500 ng used for library preparation according to standard protocols (NEBNext Ultra II Directional RNA Library Prep Kit for Illumina and NEBNext Poly(A) mRNA Magnetic Isolation Module, NEB). Indexed libraries were pooled and sequenced on a NextSeq500 flowcell (Illumina) to generate 25-50 million paired-end 75 bp reads per sample. Pre-processing and quantile normalization of microarray data was performed with the AFFY package in R. From normalized RNA intensities, unbiased, differential expression analysis and a short list of gene (FDR<0.05) was generated with the LIMMA package in R. Using the differentially expressed genes, pathway and molecular function enrichment analysis was performed in MetCore GeneCo. The GSEA software for gene set enrichment analysis was used with normalized RNA intensities. The false discovery rate was set at <10%. Top gene pathways were selected based on a P-value of <0.05 and a fold change of >1.5. All analyses were performed using R version 3.5.0. Gene sets for differential expression heat maps included interferon-γ 10-gene, preliminary expanded immune 28-gene, T cell inflamed 18-gene, and T-effector 6-gene signature sets, all of which have been associated with PD-1 or PD-L1 blockade amongst a range of tumor types, including breast cancer.

[4] = tested on: Fo5 tumors; experiment: Fo5 trastuzumab-resistant HER2-positive murine tumor model: tumor growth and survival; type: in vivo, FVB mice
[5] = tested on: H2N113 tumors; type: in vivo; remark: listed apart in the source
[6] = tested on: BT474; experiment: growth inhibition assay (CellTitre-Glo), BT474; type: cell-based, human; conditions: BT474, dose-dependent cell growth inhibition; FIG. 5A
[7] = tested on: SKBR3; experiment: growth inhibition assay (CellTitre-Glo), SKBR3; type: cell-based, human; conditions: SKBR3, dose-dependent cell growth inhibition; FIG. 5B
[8] = tested on: H2N113; experiment: growth inhibition assay (CellTitre-Glo), H2N113; type: cell-based, murine; conditions: H2N113, dose-dependent cell growth inhibition; FIG. 5C
[9] = tested on: HER2 signaling pathway; experiment: Western blot for phosphor-HER2 and total HER2, Fo5 tumors; type: in vivo, FVB mice; conditions: Fo5 tumors treated with tucatinib vs vehicle; FIG. 11A
[10] = tested on: HER2 signaling pathway; experiment: Western blot for phosphor-HER2 and total HER2, H2N113 cells; type: cell-based, murine; conditions: H2N113 cells treated with tucatinib vs vehicle; FIG. 11B
[11] = target: HER2 (Homo sapiens, UniProt P04626); conditions: cellular signaling assays; background statement; cited from earlier work
[12] = Example 4, after 10 days of tucatinib, FIG. 16A-16B
[13] = Example 4, after 10 days of tucatinib, FIG. 16C-16D
[14] = Example 4, after 14 days of tucatinib treatment
[15] = Example 4, tucatinib treated tumors
[16] = tucatinib 100 mg/kg orally once daily, 14 days, FIG. 2L

Sequence of HER2 (P04626 23-1255): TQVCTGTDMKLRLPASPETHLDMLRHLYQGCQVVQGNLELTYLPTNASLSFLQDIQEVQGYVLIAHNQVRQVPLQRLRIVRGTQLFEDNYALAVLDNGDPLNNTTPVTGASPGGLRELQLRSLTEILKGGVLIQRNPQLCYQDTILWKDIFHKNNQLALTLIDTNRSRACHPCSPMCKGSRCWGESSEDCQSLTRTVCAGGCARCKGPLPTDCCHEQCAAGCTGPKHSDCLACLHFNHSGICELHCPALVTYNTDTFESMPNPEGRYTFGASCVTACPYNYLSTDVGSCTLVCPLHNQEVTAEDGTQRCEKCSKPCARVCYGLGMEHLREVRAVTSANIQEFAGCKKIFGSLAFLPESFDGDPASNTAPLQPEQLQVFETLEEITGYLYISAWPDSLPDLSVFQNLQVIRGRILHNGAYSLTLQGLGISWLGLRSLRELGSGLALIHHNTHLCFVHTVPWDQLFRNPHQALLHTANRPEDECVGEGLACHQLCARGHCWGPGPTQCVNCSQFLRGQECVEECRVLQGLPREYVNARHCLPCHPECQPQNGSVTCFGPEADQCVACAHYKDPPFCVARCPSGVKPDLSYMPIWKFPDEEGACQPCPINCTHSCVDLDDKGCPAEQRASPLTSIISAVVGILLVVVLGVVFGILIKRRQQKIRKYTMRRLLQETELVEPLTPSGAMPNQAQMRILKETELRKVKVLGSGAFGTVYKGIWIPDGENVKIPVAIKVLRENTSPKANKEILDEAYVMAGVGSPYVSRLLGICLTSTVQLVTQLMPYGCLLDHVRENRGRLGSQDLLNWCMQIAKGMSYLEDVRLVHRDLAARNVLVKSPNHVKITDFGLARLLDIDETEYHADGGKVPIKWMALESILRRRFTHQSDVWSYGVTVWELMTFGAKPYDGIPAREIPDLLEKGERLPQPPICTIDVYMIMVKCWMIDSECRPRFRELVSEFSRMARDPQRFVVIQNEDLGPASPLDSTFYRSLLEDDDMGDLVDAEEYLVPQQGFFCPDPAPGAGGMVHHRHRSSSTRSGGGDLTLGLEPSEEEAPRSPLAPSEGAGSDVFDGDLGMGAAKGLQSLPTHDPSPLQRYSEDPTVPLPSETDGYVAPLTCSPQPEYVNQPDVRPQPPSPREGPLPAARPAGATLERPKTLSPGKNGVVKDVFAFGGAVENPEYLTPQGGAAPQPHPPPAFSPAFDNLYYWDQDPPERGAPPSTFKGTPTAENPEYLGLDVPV

Cc1cc(Nc2ncnc3ccc(NC4=NC(C)(C)CO4)cc23)ccc1Oc1ccn2ncnc2c1 [tucatinib, N^4-(4-([1,2,4]triazolo[1,5-a]pyridin-7-yloxy)-3-methylphenyl)-N-(4,4-dimethyl-4,5-dihydrooxazol-2-yl) quinazoline-4,6-diamine]
interferon-7 expression in CD4+ effector memory T cell subset [1, 12]: increased | interferon-7 expression in CD8+ effector memory T cell subset [1, 12]: increased | PD-1+ expression in CD8+ effector memory T cells [1, 13]: increased | granzyme B expression in CD8+ effector memory T cells [1, 13]: increased | infiltration of CD8+ T cells expressing PD-1 in the tumor ([1]; tucatinib 50 mg/kg orally once daily, 10-14 days, vs vehicle, FIG. 1A): increase | infiltration of CD8+ T cells expressing IFNγ in the tumor ([1]; tucatinib 50 mg/kg orally once daily, 10-14 days, vs vehicle, FIG. 1B): increase | infiltration of CD8+ T cells expressing FOXP3 in the tumor ([1]; tucatinib 50 mg/kg orally once daily, 10-14 days, vs vehicle, FIG. 1C): increase | CD4+ to CD8+ T cell ratio in the tumor ([1]; tucatinib 50 mg/kg orally once daily, 10-14 days, vs vehicle, FIG. 1D): moderate increase | CD8+ effector memory (CD44+CD62L−) T cell frequency as a percentage of total CD8+ [2, 14]: increased | PD-1+ expression of CD8+ effector memory T cells [2, 14]: significantly higher | TIM3+ expression of CD8+ effector memory T cells [2, 14]: significantly higher | CD8+ proportion ([2]; Example 4, after 14 days of tucatinib treatment vs vehicle): increased | expression of Ki67 in CD8+ effector memory T cells ([2]; Example 4, day 14, FIG. 13A): increased expression | interferon-7 expression in CD8+ effector memory T cells compared to vehicle treated controls ([2]; Example 4, day 14, FIG. 13B): significantly greater | CD49b+ natural killer cell population proportion of CD45+CD3− lymphocytes ([2]; Example 4, day 14, FIG. 14): significantly increased | CD103+ dendritic cells [2, 15]: significant increase | MHC II+ macrophages [2, 15]: significant increase | granulocytic MDSC as proportion of CD45.2+ lymphocytes [2, 15]: significant decrease | neutrophils (CD11c-F4/80-CD11b+Ly6G+Ly6C+) as proportion of CD45.2+ lymphocytes [2, 15]: significant decrease | suppressive MHC II low macrophages as proportion of CD45.2+ lymphocytes [2, 15]: significant decrease | PD-L1 expression on CD45+ cells (total TILs) ([2]; Example 4, tucatinib vs vehicle treated TILs, FIG. 15A-15B): increased intensity | infiltration of natural killer (NK) cells in the tumor ([2]; tucatinib 100 mg/kg orally once daily, 14 days): increase | infiltration of CD8+ T cells in the tumor ([2]; tucatinib 100 mg/kg orally once daily, 14 days, vs vehicle, FIG. 2A): increase | infiltration of CD4+ T cells not expressing FOXP3 in the tumor ([2]; tucatinib 100 mg/kg orally once daily, 14 days, FIG. 2B): increase | infiltration of CD4+ T cells expressing FOXP3 in the tumor ([2]; tucatinib 100 mg/kg orally once daily, 14 days, FIG. 2C): increase | infiltration of CD8+ T cells expressing Ki67 in the tumor ([2]; tucatinib 100 mg/kg orally once daily, 14 days, FIG. 2D): increase | infiltration of CD8+ T cells expressing IFNγ in the tumor ([2]; tucatinib 100 mg/kg orally once daily, 14 days, FIG. 2E): increase | infiltration of CD8+ T cells expressing PD-1 in the tumor ([2]; tucatinib 100 mg/kg orally once daily, 14 days, FIG. 2F): increase | infiltration of CD8+ T cells expressing OX40 in the tumor ([2]; tucatinib 100 mg/kg orally once daily, 14 days, FIG. 2G): increase | infiltration of CD8+ T cells expressing TIM3 in the tumor ([2]; tucatinib 100 mg/kg orally once daily, 14 days, FIG. 2H): increase | infiltration of neutrophils in the tumor ([2]; tucatinib 100 mg/kg orally once daily, 14 days, FIG. 2J): decrease | percentage of CD11 b dendritic cells in the tumor ([2]; tucatinib 100 mg/kg orally once daily, 14 days, FIG. 2K): increase | percentage of MHC-II high in the tumor [2, 16]: increase | percentage of MHC-II low in the tumor [2, 16]: decrease | genes associated with favorable clinical response to checkpoint inhibitors ([3]; day 10 post treatment, differential gene expression, FIG. 21A-21D): upregulation | genes related to immune cell function ([3]; day 10 post treatment, tucatinib 50 mg/kg vs vehicle, FIG. 17, 18A-18B): significant upregulation | genes related to antigen presentation ([3]; day 10 post treatment, tucatinib 50 mg/kg vs vehicle, FIG. 19, 20A-20B): significant upregulation | expression of genes predictive of response to immunotherapy (IFNγ-related gene expression signature, expanded immune signature) ([3]; stranded polyA RNA sequencing, tucatinib vs vehicle, FIG. 3A, 3B): increased expression | tumor growth ([4]; tucatinib 25, 50, 100 mg/kg orally once daily vs vehicle, p<0.05): significantly inhibited tumor growth in a dose-dependent manner; also recorded: significant dose-dependent tumor growth inhibition | survival ([4]; tucatinib at increasing doses vs vehicle, FIG. 9B): improved survival | tumor growth ([5]; tucatinib at increasing doses by oral gavage vs vehicle): significant dose-dependent tumor growth inhibition | survival ([5]; tucatinib at increasing doses vs vehicle, FIG. 8B): improved survival | GI50 at 72 hours [6]: nanomolar range | GI50 at 72 hours [7]: nanomolar range | GI50 at 72 hours [8]: nanomolar range | HER2 signaling pathway (phosphor-HER2 and total HER2) [9]: Inhibition of the HER2 signaling pathway | HER2 signaling pathway (phosphor-HER2 and total HER2) [10]: Inhibition of the HER2 signaling pathway | selectivity for HER2 compared to the closely related kinase EGFR [11]: > 1000 fold
